Like-named read-outs stand apart in the source and are kept apart here.
Tests used:
HUVECs = assay: High-content imaging cytotoxicity in HUVECs, 24 h; assay type: cell-based, human; details: Homo sapiens, HUVEC, 24 h, HUVECs; for viability at 0.01 µM / activity at 0.01 µM / viability at 0.1 µM / activity at 0.1 µM / viability at 1 µM / activity at 1 µM / viability at 10 µM / activity at 10 µM / viability at 100 µM / activity at 100 µM: 0.00 µM = 100.00; for viability at 0.1 µM / activity at 0.1 µM: 0.10 µM; for minimal effective concentration: top concentration 100.00 µM
Procedure, shortened: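 Confluent HUVEC monolayers, passages 1–5, received test chemicals for 24 h. Cytotoxicity was scored from triple-stain high-content images, with PODs defined by a one-SD deviation from 0.5% DMSO vehicle controls.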

[1] = tested on: iCell cardiomyocytes (human iPSC-derived cardiomyocytes); assay: High-content imaging of cytotoxicity and mitochondrial integrity in iPSC-CMs; assay type: cell-based; details: Homo sapiens; for viability at 0.01 µM / activity at 0.01 µM / viability at 0.1 µM / activity at 0.1 µM / viability at 1 µM / activity at 1 µM / viability at 10 µM / activity at 10 µM / viability at 100 µM / activity at 100 µM: Cardiomyocyte, 0.00 µM = 100.00; for viability at 0.1 µM / activity at 0.1 µM: 0.10 µM; for minimal effective concentration: iPSC-CM
Procedure, shortened: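 Cardiomyocytes grown on gelatinized 384-well plates received fresh medium on the experiment day and were then exposed to chemicals at 0.01–100μM. Nuclei and mitochondria were labeled with Hoechst 33342 and MitoTracker™ Orange, then fixed, and imaged on an ImageXpress® Micro Confocal system. Four-parameter logistic concentration–response fits in R, with a one-standard-deviation vehicle cutoff, gave point-of-departure values.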

[2] = 24 hr, read-out: huvec.cyto.24hr
[3] = 24 hr, read-out: huvec.mito.24hr
[4] = 24 hr, read-out: huvec.mitoint.24hr
[5] = 24 hr, read-out: huvec.nma.24hr
[6] = 24 hrs, read-out: huvec.tc.24hrs

SMILES: Clc1cccc(-c2cccc(Cl)c2)c1 [PCB11]
- viability at 0.01 µM (HUVECs; [2]): 91.9%
- activity at 0.01 µM (HUVECs; [3]): 90.9%
- activity at 0.01 µM (HUVECs; [4]): 90.3%
- activity at 0.01 µM (HUVECs; [5]): 99.1%
- viability at 0.1 µM (HUVECs; [2]): 99.2%
- activity at 0.1 µM (HUVECs; [3]): 97.8%
- activity at 0.1 µM (HUVECs; [4]): 99.8%
- activity at 0.1 µM (HUVECs; [5]): 99.1%
- viability at 1 µM (HUVECs; [2]): 96.6%
- activity at 1 µM (HUVECs; [3]): 96.2%
- activity at 1 µM (HUVECs; [4]): 95.2%
- activity at 1 µM (HUVECs; [5]): 98.1%
- viability at 10 µM (HUVECs; [2]): 95%
- activity at 10 µM (HUVECs; [3]): 93.9%
- activity at 10 µM (HUVECs; [4]): 89.1%
- activity at 10 µM (HUVECs; [5]): 96.6%
- viability at 100 µM (HUVECs; [2]): 44.7%
- activity at 100 µM (HUVECs; [3]): 22.1%
- activity at 100 µM (HUVECs; [4]): 15.7%
- activity at 100 µM (HUVECs; [5]): 54.9%
- minimal effective concentration (HUVECs; 24 hr, read-out: huvec.cyto.24hr POD): 11.2 µM
- minimal effective concentration (HUVECs; 24 hr, read-out: huvec.mito.24hr POD): 9.68 µM
- minimal effective concentration (HUVECs; 24 hr, read-out: huvec.mitoint.24hr POD): 7.62 µM
- minimal effective concentration (HUVECs; 24 hr, read-out: huvec.nma.24hr POD): 9.3 µM
- viability at 0.01 µM (HUVECs; [6]): 91.9%
- viability at 0.1 µM (HUVECs; [6]): 99.2%
- viability at 1 µM (HUVECs; [6]): 96.6%
- viability at 10 µM (HUVECs; [6]): 95%
- viability at 100 µM (HUVECs; [6]): 44.9%
- minimal effective concentration (HUVECs; 24 hrs, read-out: huvec.tc.24hrs POD): 11.2 µM
- viability at 0.01 µM ([1]; 1.5 h, read-out: cm.cam.90min): 99%
- activity at 0.01 µM ([1]; 1.5 h, read-out: cm.mii.90min): 116%
- activity at 0.01 µM ([1]; 1.5 h, read-out: cm.mito.90min): 99.1%
- viability at 0.01 µM ([1]; 1.5 h, read-out: cm.tc.90min): 99%
- viability at 0.1 µM ([1]; 1.5 h, read-out: cm.cam.90min): 97.7%
- activity at 0.1 µM ([1]; 1.5 h, read-out: cm.mii.90min): 102%
- activity at 0.1 µM ([1]; 1.5 h, read-out: cm.mito.90min): 97.7%
- viability at 0.1 µM ([1]; 1.5 h, read-out: cm.tc.90min): 97.7%
- viability at 1 µM ([1]; 1.5 h, read-out: cm.cam.90min): 101%
- activity at 1 µM ([1]; 1.5 h, read-out: cm.mii.90min): 98.3%
- activity at 1 µM ([1]; 1.5 h, read-out: cm.mito.90min): 101%
- viability at 1 µM ([1]; 1.5 h, read-out: cm.tc.90min): 101%
- viability at 10 µM ([1]; 1.5 h, read-out: cm.cam.90min): 99.5%
- activity at 10 µM ([1]; 1.5 h, read-out: cm.mii.90min): 105%
- activity at 10 µM ([1]; 1.5 h, read-out: cm.mito.90min): 99.5%
- viability at 10 µM ([1]; 1.5 h, read-out: cm.tc.90min): 99.3%
- viability at 100 µM ([1]; 1.5 h, read-out: cm.cam.90min): 1.03%
- activity at 100 µM ([1]; 1.5 h, read-out: cm.mii.90min): 152%
- activity at 100 µM ([1]; 1.5 h, read-out: cm.mito.90min): 0.83%
- viability at 100 µM ([1]; 1.5 h, read-out: cm.tc.90min): 1.06%
- viability at 0.01 µM ([1]; 24 h, read-out: cm.cam.24hrs): 103%
- activity at 0.01 µM ([1]; 24 h, read-out: cm.mii.24hrs): 93.5%
- activity at 0.01 µM ([1]; 24 h, read-out: cm.mito.24hrs): 102%
- viability at 0.01 µM ([1]; 24 h, read-out: cm.tc.24hrs): 102%
- viability at 0.1 µM ([1]; 24 h, read-out: cm.cam.24hrs): 99.5%
- activity at 0.1 µM ([1]; 24 h, read-out: cm.mii.24hrs): 93%
- activity at 0.1 µM ([1]; 24 h, read-out: cm.mito.24hrs): 98.7%
- viability at 0.1 µM ([1]; 24 h, read-out: cm.tc.24hrs): 99.3%
- viability at 1 µM ([1]; 24 h, read-out: cm.cam.24hrs): 101%
- activity at 1 µM ([1]; 24 h, read-out: cm.mii.24hrs): 93.7%
- activity at 1 µM ([1]; 24 h, read-out: cm.mito.24hrs): 98.5%
- viability at 1 µM ([1]; 24 h, read-out: cm.tc.24hrs): 101%
- viability at 10 µM ([1]; 24 h, read-out: cm.cam.24hrs): 103%
- activity at 10 µM ([1]; 24 h, read-out: cm.mii.24hrs): 85.7%
- activity at 10 µM ([1]; 24 h, read-out: cm.mito.24hrs): 102%
- viability at 10 µM ([1]; 24 h, read-out: cm.tc.24hrs): 103%
- viability at 100 µM ([1]; 24 h, read-out: cm.cam.24hrs): 0.64%
- activity at 100 µM ([1]; 24 h, read-out: cm.mii.24hrs): 31.3%
- activity at 100 µM ([1]; 24 h, read-out: cm.mito.24hrs): 0.24%
- viability at 100 µM ([1]; 24 h, read-out: cm.tc.24hrs): 0.62%
- minimal effective concentration ([1]; 1.5 h, read-out: cm.cam.90min POD): 18.6 µM
- minimal effective concentration ([1]; 1.5 h, read-out: cm.mii.90min POD): 12.4 µM
- minimal effective concentration ([1]; 1.5 h, read-out: cm.mito.90min POD): 14.2 µM
- minimal effective concentration ([1]; 1.5 h, read-out: cm.tc.90min POD): 16.7 µM
- minimal effective concentration ([1]; 24 h, read-out: cm.cam.24hrs POD): 35.2 µM
- minimal effective concentration ([1]; 24 h, read-out: cm.mii.24hrs POD): 9.6 µM
- minimal effective concentration ([1]; 24 h, read-out: cm.mito.24hrs POD): 33.1 µM
- minimal effective concentration ([1]; 24 h, read-out: cm.tc.24hrs POD): 35.1 µM

From PMC7377239, “Cardiovascular Effects of Polychlorinated Biphenyls and Their Major Metabolites” (Environmental Health Perspectives, 2020)
